Results reported in patent US12344603B2 (Genentech, Inc., priority 2020, dated 2025).
Counter-ions that a name gives are not always drawn.

Target: IRE1α (Homo sapiens (Human), UniProt O75460, D688N)
Assay: IRE1α TR-FRET competition binding assay (IRE1α HTRF)
Settings: TR-FRET competition binding to kinase domain of IRE1α
Summary of the method: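 Kinase domain (0.25 nM) pre-bound to 2 nM Eu anti-His antibody for 1 h at 4° C in HEPES pH 7.5/MgCl2/Brij 35/DTT/gamma globulin buffer, then mixed with compounds and 2 nM Alexa 647 ATP-competitive probe. 1 h at room temperature; probe displacement read as TR-FRET (Ex 347 nm, Em 665/615 nm).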

Sequence of IRE1α (O75460 547-977 D688N): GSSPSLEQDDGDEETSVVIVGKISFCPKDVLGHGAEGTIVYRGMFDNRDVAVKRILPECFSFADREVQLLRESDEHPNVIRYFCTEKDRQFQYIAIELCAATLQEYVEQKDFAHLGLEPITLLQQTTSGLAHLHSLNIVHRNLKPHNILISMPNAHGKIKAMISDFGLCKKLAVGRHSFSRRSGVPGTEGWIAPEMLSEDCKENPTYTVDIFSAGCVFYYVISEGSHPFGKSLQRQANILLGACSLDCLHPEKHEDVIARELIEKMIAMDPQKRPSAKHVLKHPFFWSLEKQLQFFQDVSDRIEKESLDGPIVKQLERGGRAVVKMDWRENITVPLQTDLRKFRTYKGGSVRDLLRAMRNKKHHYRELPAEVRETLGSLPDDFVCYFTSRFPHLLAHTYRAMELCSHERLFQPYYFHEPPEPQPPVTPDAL

| SMILES | IC50 |
| --- | --- |
| CC(C)n1c(=O)c(-c2c(F)cc(NS(=O)(=O)Cc3ccc(F)cc3)c(F)c2F)cc2cnc(N[C@H]3CC[C@H](N(C)C)CC3)nc21 [Compound 128, N-(4-(2-(((1r,4r)-4-(Dimethylamino)cyclohexyl)amino)-8-isopropyl-7-oxo-7,8-dihydropyrido[2,3-d]pyrimidin-6-yl)-2,3,5-trifluorophenyl)-1-(4-fluorophenyl)methanesulfonamide] | 0.15 nM |
| CC(C)n1c(=O)c(-c2c(F)cc(NS(=O)(=O)Cc3ccc(F)cc3)cc2F)cc2cnc(N[C@H]3CC[C@H](N(C)C)CC3)nc21 [Compound 129, N-(4-(2-(((1r,4r)-4-(Dimethylamino)cyclohexyl)amino)-8-isopropyl-7-oxo-7,8-dihydropyrido[2,3-d]pyrimidin-6-yl)-3,5-difluorophenyl)-1-(4-fluorophenyl)methanesulfonamide hydrochloride] | 0.08 nM |
| CC(C)n1c(=O)c(-c2c(F)cc(NS(=O)(=O)Cc3ccc(F)cc3)cc2F)cc2cnc(N[C@@H]3CNC[C@@H](F)C3)nc21 [Compound 130, N-(3,5-Difluoro-4-(2-(((3S,5S)-5-fluoropiperidin-3-yl)amino)-8-isopropyl-7-oxo-7,8-dihydropyrido[2,3-d]pyrimidin-6-yl)phenyl)-1-(4-fluorophenyl)methanesulfonamide hydrochloride] | 0.38 nM |
| COc1nc(NS(=O)(=O)c2ccccc2Cl)ccc1-c1cc2cnc(N[C@H]3CC[C@H](N(C)C)CC3)nc2n(C(C)C)c1=O [Compound 131, 2-Chloro-N-(5-(2-(((1r,4r)-4-(dimethylamino)cyclohexyl)amino)-8-isopropyl-7-oxo-7,8-dihydropyrido[2,3-d]pyrimidin-6-yl)-6-methoxypyridin-2-yl)benzenesulfonamide] | 0.21 nM |
| Cc1nc(NS(=O)(=O)c2ccc(F)cc2)ccc1-c1cc2cnc(N[C@H]3CC[C@H](N(C)C)CC3)nc2n(C(C)C)c1=O [Compound 132, N-(5-(2-(((1r,4r)-4-(Dimethylamino)cyclohexyl)amino)-8-isopropyl-7-oxo-7,8-dihydropyrido[2,3-d]pyrimidin-6-yl)-6-methylpyridin-2-yl)-4-fluorobenzenesulfonamide] | 0.52 nM |
| Cc1nc(NS(=O)(=O)c2ccccc2Cl)ccc1-c1cc2cnc(N[C@@H]3CNC[C@@H](F)C3)nc2n(C(C)C)c1=O [Compound 133, 2-Chloro-N-(5-(2-(((3S,5S)-5-fluoropiperidin-3-yl)amino)-8-isopropyl-7-oxo-7,8-dihydropyrido[2,3-d]pyrimidin-6-yl)-6-methylpyridin-2-yl)benzenesulfonamide] | 0.62 nM |
| CC(C)n1c(=O)c(-c2ccc(NS(=O)(=O)C3CCCC3)c(F)c2)cc2cnc(N[C@H]3CC[C@H](N(C)C)CC3)nc21 [Compound 134, N-(4-(2-(((1r,4r)-4-(Dimethylamino)cyclohexyl)amino)-8-isopropyl-7-oxo-7,8-dihydropyrido[2,3-d]pyrimidin-6-yl)-2-fluorophenyl)cyclopentanesulfonamide hydrochloride] | 0.19 nM |
| Cc1nc(NS(=O)(=O)c2ccccc2Cl)ccc1-c1cc2cnc(N[C@H]3CC[C@H](N(C)C)CC3)nc2n(C(C)C)c1=O [Compound 135, 2-Chloro-N-(5-(2-(((1r,4r)-4-(dimethylamino)cyclohexyl)amino)-8-isopropyl-7-oxo-7,8-dihydropyrido[2,3-d]pyrimidin-6-yl)-6-methylpyridin-2-yl)benzenesulfonamide] | 0.43 nM |
| Cc1nc(NS(=O)(=O)c2ccccc2C#N)ccc1-c1cc2cnc(N[C@H]3CC[C@H](N(C)C)CC3)nc2n(C(C)C)c1=O [Compound 136, 2-Cyano-N-(5-(2-(((1r,4r)-4-(dimethylamino)cyclohexyl)amino)-8-isopropyl-7-oxo-7,8-dihydropyrido[2,3-d]pyrimidin-6-yl)-6-methylpyridin-2-yl)benzenesulfonamide] | 0.29 nM |
| Cc1cccc(S(=O)(=O)Nc2ccc(-c3cc4cnc(N[C@H]5CC[C@H](N(C)C)CC5)nc4n(C(C)C)c3=O)c(C)n2)c1F [Compound 137, N-(5-(2-(((1r,4r)-4-(Dimethylamino)cyclohexyl)amino)-8-isopropyl-7-oxo-7,8-dihydropyrido[2,3-d]pyrimidin-6-yl)-6-methylpyridin-2-yl)-2-fluoro-3-methylbenzenesulfonamide] | 0.48 nM |
| COCCN(C)[C@H]1CC[C@H](Nc2ncc3cc(-c4ccc(NS(=O)(=O)CCC(F)(F)F)c(F)c4)c(=O)n(C(C)C)c3n2)CC1 [Compound 138, 3,3,3-Trifluoro-N-(2-fluoro-4-(8-isopropyl-2-(((1r,4r)-4-((2-methoxyethyl)(methyl)amino)cyclohexyl)amino)-7-oxo-7,8-dihydropyrido[2,3-d]pyrimidin-6-yl)phenyl)propane-1-sulfonamide] | 0.19 nM |
| CC(C)n1c(=O)c(-c2cc(F)c(NS(=O)(=O)Cc3cccnc3C(F)(F)F)c(F)c2F)cc2cnc(N[C@@H]3CNC[C@@H](F)C3)nc21 [Compound 139, N-(2,3,6-Trifluoro-4-(2-(((3S,5S)-5-fluoropiperidin-3-yl)amino)-8-isopropyl-7-oxo-7,8-dihydropyrido[2,3-d]pyrimidin-6-yl)phenyl)-1-(2-(trifluoromethyl)pyridin-3-yl)methanesulfonamide] | 0.27 nM |
| Cc1nc(NS(=O)(=O)c2ccccc2F)ccc1-c1cc2cnc(N[C@H]3CC[C@H](N(C)C)CC3)nc2n(C(C)C)c1=O [Compound 140, N-(5-(2-(((1r,4r)-4-(Dimethylamino)cyclohexyl)amino)-8-isopropyl-7-oxo-7,8-dihydropyrido[2,3-d]pyrimidin-6-yl)-6-methylpyridin-2-yl)-2-fluorobenzenesulfonamide] | 0.3 nM |
| CC(C)n1c(=O)c(-c2cc(F)c(NS(=O)(=O)Cc3ccc(F)cc3)c(F)c2F)cc2cnc(N[C@H]3CC[C@H](N(C)CCF)CC3)nc21 [Compound 141, 1-(4-Fluorophenyl)-N-(2,3,6-trifluoro-4-(2-(((1r,4r)-4-((2-fluoroethyl)(methyl)amino)cyclohexyl)amino)-8-isopropyl-7-oxo-7,8-dihydropyrido[2,3-d]pyrimidin-6-yl)phenyl)methanesulfonamide] | 0.18 nM |
| Cc1nc(NS(=O)(=O)c2cccc(C#N)c2)ccc1-c1cc2cnc(N[C@H]3CC[C@H](N(C)C)CC3)nc2n(C(C)C)c1=O [Compound 142, 3-Cyano-N-(5-(2-(((1r,4r)-4-(dimethylamino)cyclohexyl)amino)-8-isopropyl-7-oxo-7,8-dihydropyrido[2,3-d]pyrimidin-6-yl)-6-methylpyridin-2-yl)benzenesulfonamide] | 0.69 nM |
| CC(C)n1c(=O)c(-c2ccc(NS(=O)(=O)CCC(F)(F)F)nc2)cc2cnc(N[C@H]3CC[C@H](N(C)CCF)CC3)nc21 [Compound 143, 3,3,3-Trifluoro-N-(5-(2-(((1r,4r)-4-((2-fluoroethyl)(methyl)amino)cyclohexyl)amino)-8-isopropyl-7-oxo-7,8-dihydropyrido[2,3-d]pyrimidin-6-yl)pyridin-2-yl)propane-1-sulfonamide] | 0.3 nM |
| CC(C)n1c(=O)c(-c2ccc(NS(=O)(=O)c3ccccc3)nc2)cc2cnc(N[C@H]3CC[C@H](N(C)CCF)CC3)nc21 [Compound 144, N-(5-(2-(((1r,4r)-4-((2-Fluoroethyl)(methyl)amino)cyclohexyl)amino)-8-isopropyl-7-oxo-7,8-dihydropyrido[2,3-d]pyrimidin-6-yl)pyridin-2-yl)benzenesulfonamide] | 0.18 nM |
| Cc1nc(NS(=O)(=O)c2ccccc2Cl)ccc1-c1cc2cnc(N[C@H]3CC[C@H](N(C)CCF)CC3)nc2n(C(C)C)c1=O [Compound 145, 2-Chloro-N-(5-(2-(((1r,4r)-4-((2-fluoroethyl)(methyl)amino)cyclohexyl)amino)-8-isopropyl-7-oxo-7,8-dihydropyrido[2,3-d]pyrimidin-6-yl)-6-methylpyridin-2-yl)benzenesulfonamide] | 0.27 nM |
| CC(C)n1c(=O)c(-c2ccc(NS(=O)(=O)c3ccccc3Cl)nc2)cc2cnc(N[C@H]3CC[C@H](N(C)CCF)CC3)nc21 [Compound 146, 2-Chloro-N-(5-(2-(((1r,4r)-4-((2-fluoroethyl)(methyl)amino)cyclohexyl)amino)-8-isopropyl-7-oxo-7,8-dihydropyrido[2,3-d]pyrimidin-6-yl)pyridin-2-yl)benzenesulfonamide hydrochloride] | 0.16 nM |
| CC(C)n1c(=O)c(-c2ccc(NS(=O)(=O)c3ccccc3Cl)nc2)cc2cnc(N[C@@H]3CNC[C@@H](F)C3)nc21 [Compound 147, 2-Chloro-N-(5-(2-(((3S,5S)-5-fluoropiperidin-3-yl)amino)-8-isopropyl-7-oxo-7,8-dihydropyrido[2,3-d]pyrimidin-6-yl)pyridin-2-yl)benzenesulfonamide] | 0.27 nM |
| CC(C)n1c(=O)c(-c2ccc(NS(=O)(=O)c3ccccc3C#N)nc2)cc2cnc(N[C@H]3CC[C@H](N(C)CCF)CC3)nc21 [Compound 148, 2-Cyano-N-(5-(2-(((1r,4r)-4-((2-fluoroethyl)(methyl)amino)cyclohexyl)amino)-8-isopropyl-7-oxo-7,8-dihydropyrido[2,3-d]pyrimidin-6-yl)pyridin-2-yl)benzenesulfonamide] | 0.23 nM |
| CC(C)n1c(=O)c(-c2ccc(NS(=O)(=O)c3ccccc3OC(F)(F)F)nc2)cc2cnc(N[C@H]3CC[C@H](N(C)C)CC3)nc21 [Compound 150, N-(5-(2-(((1r,4r)-4-(Dimethylamino)cyclohexyl)amino)-8-isopropyl-7-oxo-7,8-dihydropyrido[2,3-d]pyrimidin-6-yl)pyridin-2-yl)-2-(trifluoromethoxy)benzenesulfonamide] | 0.26 nM |
| CC(C)n1c(=O)c(-c2ccc(NS(=O)(=O)CC3CC(F)(F)C3)c(F)c2)cc2cnc(N[C@H]3CC[C@H](N(C)C)CC3)nc21 [Compound 151, 1-(3,3-Difluorocyclobutyl)-N-(4-(2-(((1r,4r)-4-(dimethylamino)cyclohexyl)amino)-8-isopropyl-7-oxo-7,8-dihydropyrido[2,3-d]pyrimidin-6-yl)-2-fluorophenyl)methanesulfonamide] | 0.19 nM |
